Results on one compound are retold here after ChEMBL document CHEMBL6071147, “A novel 7-phenoxy-benzimidazole derivative as a potent and orally available BRD4 inhibitor for the treatment of melanoma” (Bioorg Med Chem, 2024).

The test addresses Bromodomain testis-specific protein (Homo sapiens, UniProt Q58F21). Put plainly: Displacement of [Lys(5,8,12,16)Ac]H4(1 to 21)-biotin from BRDT-BD1 (unknown origin) by TR-FRET assay. A general note: Time-resolved FRET reads energy transfer from a long-lived donor to a nearby acceptor.

For orientation: IC50 means the midpoint of a concentration-inhibition curve. A higher IC50 goes with lower potency. Compound `Cn1cc(-c2ccc3nc(C4CCOCC4)[nH]c3c2Oc2ccccc2)ccc1=O` came in with an IC50 of 22 nM.
